Literature values as cited in patent publication US10973866B2, “Compositions and methods for treating, inhibiting the onset, and slowing the progression of erectile dysfunction including naturally occurring age related erectile dysfunction” (K.L.R.M., LLC, priority 2010, dated 2021).

Key:
erectile function = details: men in their 30's with normal erectile function
[1] = human, in vivo

For `CCCc1nn(C)c2c(=O)[nH]c(-c3cc(S(=O)(=O)N4CCN(C)CC4)ccc3OCC)nc12` [Viagra], the “erectile function as measured by the IIEF” value (erectile function) is given as “increased erectile function” and the refractory period (erectile function) is given as “decrease in the refractory period”.
In the case of `NC(=O)NCCC[C@H](N)C(=O)O` [L-citrulline], the side effects [1] is listed as “no known side effects”.
